Reference: patent US10239889B1, “Pentacyclic compound” (Eisai R&D Management Co., Ltd., priority 2017, dated 2019)

Tested on: rat primary septal neuron culture
Test: Measurement of acetylcholine (ACh) release in the rat primary septal neuron culture system in the presence of NGF
Assay type: cell-based
Settings: rat primary septal neurons, with NGF, one day after compound addition, ACh by HPLC
Description: Measurement of acetylcholine (ACh) release in the rat primary septal neuron culture system in the presence of NGF
(1) Rat Primary Septal Neuron Culture
The septal area was isolated from Sprague-Dawley (SD) rats (Charles River Laboratories Japan, Inc.) at a fetal age of 18 days, and cultured.
Specifically, fetuses were aseptically removed from pregnant rats under isoflurane anesthesia. The brain was extracted from each fetus, and immersed in ice-cooled L-15 medium (11415-064, Thermo Fisher Scientific). The septal area was dissected from the extracted brain under a stereoscopic microscope. The dissected septal area was subjected to enzyme treatment in an enzyme solution containing 0.25% trypsin (15050-065, Thermo Fisher Scientific) and 0.01% DNase (D5025-150KU, Sigma) at 37° C. for 30 minutes, thereby dispersing the cells. In this case, the enzyme reaction was terminated by adding inactivated horse serum (26050-088, Thermo Fisher Scientific). The enzyme-treated solution was centrifuged at 1000 rpm for 3 minutes, and the supernatant was removed. A medium in an amount of 10 mL was added to the obtained cell mass. The medium used was Dulbecco's Modified Eagle's Medium (044-29765, WAKO) supplemented with N2 supplement (17502-048, Thermo Fisher Scientific), 1 mM sodium pyruvate (11360-070, Thermo Fisher Scientific), and Penicillin-Streptomycin (15140-1221, Thermo Fisher Scientific). The cells of the cell mass to which the medium was added were redispersed by gentle pipetting, and then centrifuged again at 1000 rpm for 3 minutes, and the supernatant was removed. The medium in an amount of 10 mL was added to the obtained cell mass, and the cell dispersion was filtered through a 40-μm nylon mesh (Cell Strainer) to remove the cell mass, thereby obtaining a neuronal cell suspension. The neuronal cell suspension was diluted with the medium, and 10% inactivated bovine serum (26140-079, Thermo Fisher Scientific) and 10% inactivated horse serum were added. Thereafter, 100 μL/well of the suspension was seeded in a 96-well plate (354461, CORNING) pre-coated with poly-D-lysine so that the initial culture density was 1.4×10^5 cells/cm^2. After the seeded cells were cultured under 5% CO2-95% air in a 37° C. incubator for 2 days, the entire medium was replaced with 120 μL of fresh medium, and the cells were subsequently cultured for 5 days.
On the 7th day of culture, compound was added in the following manner. A solution of the test compound in DMSO was diluted with the medium so that the concentration was 10 times higher than the final concentration. NGF (450-01, PEPRO TECH, INC.) was prepared at 0.3 ng/mL. These two solutions were added each in an amount of 15 μL/well, and the mixture was mixed well. The final DMSO concentration was 0.1% or less. Moreover, only DMSO and NGF were added to the control group.
(3) ACh Release Measurement
One day after compound addition, an amount of ACh release was measured by HPLC in the following manner. A warmed buffer was added at 100 μL/well to the well after the medium was eliminated, and the buffer was immediately removed. Thereafter, a buffer to which 10 μm choline, 10 μm physostigmine, and 6 mM KCl were added was added at 120 μL/well. The buffer was prepared by adding 125 mM NaCl, 25 mM 4-(2-hydroxyethyl)-1-piperazineethanesulfonic acid, 1.2 mM KH2PO4, 1.2 mM MgSO4, 2.2 mM CaCl2 (2H2O), and 10 mM glucose to sterilized water, and the final pH of the solution was set to 7.4. After the 96-well plate to which the buffer was added was incubated under 5% CO2-95% air in a 37° C. incubator for 40 minutes, 80 μL of buffer was collected. An internal standard solution IPHC (5×10^−7 M) was added in an amount of 6 μL to the collected buffer, and the buffer was transferred to a tube for HPLC measurement and subjected to HPLC measurement. […]

With CN1CCc2c(sc3nc4n(c(=O)c23)-c2ccc(F)cc2C(=O)N(C)C4)C1 [Example 1] the “Concentration (μM) showing a 20% or more increase from the amount of ACh in the control group” value was 0.1 µM.
CN1CCc2c(sc3nc4n(c(=O)c23)-c2sccc2C(=O)N(C)C4)C1 [Example 3, 5,10-dimethyl-5,6,9,10,11,12-hexahydropyrido[4″,3″:4′,5′]thieno[2′,3′:4,5]pyrimido[1,2-a]thieno[3,2-f][1,4]diazepine-4,13-dione] was tested, and the “Concentration (μM) showing a 20% or more increase from the amount of ACh in the control group” value was 0.1 µM.
